Reference: PMC10031131, “Design, synthesis and evaluation of a series of potential prodrugs of a Bruton’s tyrosine kinase (BTK) inhibitor” (Frontiers in Pharmacology, 2023)
≈ marks a conversion by molar mass, not a printed value. Read-outs that look alike come from different tables or passages of the source.

Assays:
[1] = Human plasma stability assay; assay type: in vitro ADME
Description: (§1) The in vitro stability in human plasma for the test compounds was investigated using procaine as the reference compound. The frozen human plasma was quickly thawed at 37°C. The spiking solution was made by combining 10 µL of a 10 mM compound stock solution with 990 µL of DMSO. The plasma and spiking solution were pre-warmed at 37°C for 5 min. Then 7 µL of the pre-warmed spiking solution was added into the 693 µL plasma evenly. The tests were carried out in duplicate in a 37°C shaking water bath. At 0, 5, 15, 30, 60, and 120 min, 100 µL samples were collected and added to a 400 µL solution containing an internal standard (IS). After quenching, the samples were vortexed for 5 min (600 rpm) and then centrifuged at 4,000 rpm for 20 min. LC-MS was used to analyze the clear supernatants. The values are the mean of two separate experiments.
as §1, with “at 37 °C.” for “at 37°C.”, “at 37 ℃” for “at 37°C”, “a 37 °C” for “a 37°C”

[2] = tested on: BTK^C481S; set-up: method as in Gui et al., 2019; conditions: Figure 2; ref Gui et al., 2019; cited from earlier work
[3] = target: T1, BTK (Homo sapiens, UniProt Q06187); test: Cell-free kinase enzymology assay (HTRF KinEase); assay type: biochemical
T1 construct: purchased Carna Biosciences
T1 sequence (Q06187 whole entry): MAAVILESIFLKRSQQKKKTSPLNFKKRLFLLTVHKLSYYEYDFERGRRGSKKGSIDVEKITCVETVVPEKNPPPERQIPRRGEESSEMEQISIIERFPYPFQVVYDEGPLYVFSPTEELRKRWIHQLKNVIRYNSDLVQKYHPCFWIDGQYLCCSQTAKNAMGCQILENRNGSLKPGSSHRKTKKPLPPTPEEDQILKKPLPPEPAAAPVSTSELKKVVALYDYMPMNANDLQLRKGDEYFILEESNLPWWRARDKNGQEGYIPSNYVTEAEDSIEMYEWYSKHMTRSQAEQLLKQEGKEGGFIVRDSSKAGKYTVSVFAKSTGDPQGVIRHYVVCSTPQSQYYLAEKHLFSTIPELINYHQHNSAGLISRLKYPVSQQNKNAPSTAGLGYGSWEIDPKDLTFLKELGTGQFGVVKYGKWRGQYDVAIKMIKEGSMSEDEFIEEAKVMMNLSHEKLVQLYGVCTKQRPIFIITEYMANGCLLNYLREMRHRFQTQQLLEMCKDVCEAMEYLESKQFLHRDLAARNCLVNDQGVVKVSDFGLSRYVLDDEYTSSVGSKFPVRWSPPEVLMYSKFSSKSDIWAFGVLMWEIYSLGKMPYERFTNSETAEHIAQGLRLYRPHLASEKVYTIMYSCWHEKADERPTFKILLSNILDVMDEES
Description: FIGURE 4 (A) Enzymatic activities of parent 4 and prodrugs 5a-c for BTK. Kinase enzymology assays were carried out in accordance with the protocols described in the HTRF KinEase assays. (B) Time-dependent plasma stability assay.
The kinase (BTK) was acquired from Carna Biosciences. Kinase acitivity assays were carried out based on Cisbio Bioassays’ HTRF® technology. At room temperature, kinase and substrate were combined with compounds in varied concentrations, followed by adding ATP to activate the enzymatic reactions. EDTA solution was added to stop the reactions after 1 h, followed by the addition of streptavidin XL665 conjugates and anti-phosphotyrosine antibodies. The mixtures were incubated for an additional 1 h at room temperature before reading on a plate reader (EnVision®, Perkin Elmer). GraphPad Prism was used to analyze the data.

[4] = Thermodynamic solubility determination assay; assay type: physicochemical; conditions: Britton-Robinson buffer (pH 6.5); for solubility thermodynamic: 25 °C, aqueous buffer, thermodynamic from solid, average of two measurements, read-out: S, pH 6.5 (thermodynamic solubility)
Description: Prior to mixing with the appropriate medium, the test chemical was accurately weighed into an appropriately sized screw-capped glass vial. The generated slurry was sonicated at room temperature for 20 min and at 50°C for 15 min, and then agitated at room temperature for at least two days before the crystallinity of the remaining solid was examined using a polarized light microscope. If crystallinity was not observed, more time for equilibration was allowed. The slurry was aliquoted into 1.5 mL centrifuge tubes on the day of analysis and centrifuged at 15,000 rpm for 20 min at 25°C. The supernatant’s concentration was determined by UV-vis (YOKE, T-U7S).

[5] = Chemical stability in DMSO or buffer by HPLC; assay type: physicochemical; conditions: HPLC analysis of in vitro stability after 24 h at room temperature
[6] = set-up: method as in Li et al., 2014; conditions: ref Li et al., 2014; cited from earlier work
[7] = set-up: method as in Li et al., 2014; conditions: FaSSIF (Fasted State Simulated Intestinal Fluid, pH 6.5) medium; ref Li et al., 2014; cited from earlier work
[8] = target: T1, BTK; conditions: Figure 2; ref Kuglstatter et al., 2011; cited from earlier work
[9] = DMSO, read-out: DMSO (% remaining)
[10] = buffer pH 7.4, read-out: Buffer, pH 7.4 (% remaining)

CCN(CC)CCOC(=O)c1ccc(N)cc1 [Procaine, reference compound]
Analyte Peak Area ([1]; human plasma, 37°C, time 15 min, duplicates): BLOD | Analyte Peak Area ([1]; human plasma, 37°C, time 30 min, duplicates): BLOD | Analyte Peak Area ([1]; human plasma, 37°C, time 60 min, duplicates): BLOD | Analyte Peak Area ([1]; human plasma, 37°C, time 120 min, duplicates): BLOD

Cc1cc(Nc2ncc3c(n2)N(C)CN(c2cc(NC(=O)c4cccc(C(F)(F)F)c4)ccc2C)C3)n(C)n1 [Compound 3]
IC50 [2]: 11 nM

CC(=O)Nc1cc(Nc2ncc(NC(=O)c3cc(NC(=O)c4cccc(C(F)(F)F)c4)ccc3C)cn2)ccc1OC(=O)CN1CCN(C)CC1 [Compound 5a]
IC50 [3]: 135 nM | fold lower inhibitory potential for BTK compared to parent 4 [3]: 10 fold | solubility thermodynamic [4]: 88 µM (≈ 62 µg/mL) | remaining at 24 h [5, 9]: 100% | remaining at 24 h [5, 10]: 99% | Analyte Peak Area [1]: BLOD | time for conversion to parent 4 in human plasma ([1]; human, 1 µM): less than 2 h

C=CC(=O)Nc1cccc(Nc2ncc(NC(=O)c3cc(NC(=O)c4cccc(C(F)(F)F)c4)ccc3C)cn2)c1 [Compound 2, reference compound]
bioavailability (F%) [6]: 0.9% | solubility in FaSSIF [7]: 7.02 µM (≈ 3.93 µg/mL) | solubility thermodynamic [4]: 2 µM (≈ 1.12 µg/mL) | remaining at 24 h [5, 9]: 100%

Cc1ccc(NC(=O)/C=C/c2ccccc2)cc1C(=O)Nc1cnc2[nH]c(-c3ccccc3)nc2c1 [Compound 1]
IC50 [8]: 5600 nM

CC(=O)Nc1cc(Nc2ncc(NC(=O)c3cc(NC(=O)c4cccc(C(F)(F)F)c4)ccc3C)cn2)ccc1OC(=O)CN [Compound 5b, 2-Acetamido-4-((5-(2-methyl-5-(3-(trifluoromethyl)benzamido)benzamido)pyrimidin-2-yl)amino)phenyl glycinate]
IC50 [3]: 92 nM | fold lower inhibitory potential for BTK compared to parent 4 [3]: 7 fold | solubility thermodynamic [4]: 22 µM (≈ 13.7 µg/mL) | increase of solubility compared to parent 4 [4]: thrice | remaining at 24 h [5, 9]: 100% | remaining at 24 h [5, 10]: 98%

CC(=O)Nc1cc(Nc2ncc(NC(=O)c3cc(NC(=O)c4cccc(C(F)(F)F)c4)ccc3C)cn2)ccc1OC(=O)CN(C)C [Compound 5c, 2-Acetamido-4-((5-(2-methyl-5-(3-(trifluoromethyl)benzamido)benzamido)pyrimidin-2-yl)amino)phenyl dimethylglycinate]
IC50 [3]: 124 nM | fold lower inhibitory potential for BTK compared to parent 4 [3]: 9 fold | solubility thermodynamic [4]: 4.6 µM (≈ 2.99 µg/mL) | remaining at 24 h [5, 9]: 100%

CC(=O)Nc1cc(Nc2ncc(NC(=O)c3cc(NC(=O)c4cccc(C(F)(F)F)c4)ccc3C)cn2)ccc1O [Compound 4]
IC50 [3]: 14 nM | solubility thermodynamic [4]: 6.6 µM (≈ 3.73 µg/mL) | remaining at 24 h [5, 9]: 100% | remaining at 24 h [5, 10]: 100%
